Measured values published in US8658611B2, “Apoptosis-inducing agent for prostate cancer cells” (priority 2005, dated 2014).

Legend:
[1] = test system: Normal cells OUMS 24 (human immortalized fibroblast); assay: TUNEL staining after Ad-REIC plus HSP70 inhibitor or inducer; format: cell-based; details: OUMS24; Ad-REIC 20 MOI; agent 250 mM added 24 hours later; TUNEL 48 hours later
[2] = test system: prostate cancer cells PC3; assay: as above; format: cell-based, human; details: Ad-REIC 20 MOI, agent 250 mM added 24 hours later, TUNEL 48 hours later
Procedure: Normal cells OUMS 24 (human immortalized fibroblast) and prostate cancer cells PC3 were used for comparison. The cells were infected with Ad-REIC at 20 MOI. 24 hours later, an HSP70 inhibitor (heat shock protein inhibitor I, CALBIOCHEM, BIOCHEMICALS) and an HSP70 inducer (Geranyl-Geranyl Acetone) (250 mM each) were separately added to a culture solution. 48 hours later, TUNEL staining was performed to determine influence upon apoptosis. FIGS. 12 and 13 show staining images for OUMS24 and of PC3, respectively. In FIGS. 12 and 13, images on the left side indicate TUNEL-staining results and images on the right side indicate DAPI-staining results. […] That is, apoptosis was induced in normal cells with the use of the HSP70 inhibitor in combination. On the other hand, apoptosis expression was inhibited in cancer cells with the use of the HSP70 inducer in combination. Further, apoptosis induction was promoted with the use of the HSP70 inhibitor in combination.

Structure (SMILES): O=CN1CC/C(=C\c2ccc3c(c2)OCO3)C1=O [HSP70 inhibitor]
- TUNEL-positive cells with combined use with Ad-REIC [1]: a large number of TUNEL-positive cells
- TUNEL-positive cells with combined use with Ad-REIC, versus Ad-REIC alone [2]: greater than that obtained with the use of Ad-REIC alone
